Test results reported in publication PMC8044163, “Vitamin D and lumisterol derivatives can act on liver X receptors (LXRs)” (Scientific Reports, 2021).

System: murine dermal fibroblasts
Experiment: RNA-Seq of newborn murine dermal fibroblasts
Assay type: cell-based, mouse
Conditions: 10^−7 M, 24 h
Experimental: All animal studies followed guidelines outlined by the NIH Guide for the Care and Use of Laboratory Animals and protocols were approved by the Institutional Animal Care and Use Committee at the NIEHS or the UAB. […] Skin samples from newborn C57BL/6 mice were collected at the NIEHS. Dermal fibroblasts were isolated from the skin of newborn mice, 1–2 day old. Briefly, we followed the protocols described previously. The skin was washed in PBS, cut into smaller pieces and incubated in 2.4 U/ml of dispase II (Roche) overnight at 4 °C. The dermis was separated from the epidermis and incubated in 0.1% collagenase (Roche) at 4 °C overnight. […] Single cell suspension was prepared by pipetting and draining through a cell strainer. After centrifugation, cell pellets were suspended in DMEM medium containing 10% charcoal-stripped fetal bovine serum (cFBS), mouse fibroblasts growth factor (FGF) and 1% antibiotic, and inoculated into tissue culture dishes (Midwest Scientific, TPP). Cells, in early passages, from different mice were pooled together to provide representative samples for experiments. Fibroblasts were cultured in Petri dishes (10 cm in diameter) in DMEM and 10% cFBS and triplicate semi-confluent cultures were treated as described.
Triplicate cultures of murine fibroblasts were used for RNA isolation (RNAeasy Micro kit, Qiagen), the RNA samples were combined for each condition and at least 200 ng of RNA for each sample was used to create libraries for RNA sequencing by BGI Americas Corporation Service (Cambridge, MA)[67]. Quality of RNA and its concentration were determined using Agilent 2100.
The raw sequence FASTQ files were aligned to Gencode’s GRCm38 p4 Release M11 genome using STAR version 2.5.4b (parameters used: –outReadsUnmapped Fastx; –outSAMtype BAM SortedByCoordinate; –outSAMattributes All; –outFilterIntronMotifs RemoveNoncanonicalUnannotated)[69]. The abundance of transcripts was calculated from the alignments using Cufflinks version 2.2.1 (parameters used: –G; –L; –library-type fr-firststrand). Samples were merged using default parameters with Cuffmerge[70],[71]. The differential expression was calculated using Cuffdiff’s default parameters. The raw data have been deposited at the NCBI GEO (GSE145818).

Question: What does the source list for `C=C1C(=CC=C2CCCC3(C)C2CCC3C(C)(O)CC(O)CC(C)C)CC(O)CC1O` (stereo not shown) [1,20,23(OH)3D3]?
Answer: Adh7 expression level: 1.313; Adh7 log2(fold_change) vs control: 2.36; Aqp11 expression level: 0.9394; Aqp11 log2(fold_change) vs control: 2.077; Arid3b expression level: 0.6082; Arid3b log2(fold_change) vs control: -2.478; Bicd1 expression level: 0.7058; Bicd1 log2(fold_change) vs control: -1.592; Btc expression level: 1.117; Btc log2(fold_change) vs control: 2.211; Car9 expression level: 2.818; Car9 log2(fold_change) vs control: -1.732; Cbs expression level: 0.2989; Cbs log2(fold_change) vs control: -2.697; Ccl4 expression level: 0.3377; Ccl4 log2(fold_change) vs control: -1.322; Cd68 expression level: 3.541; Cd68 log2(fold_change) vs control: 1.639; Cd200 expression level: 0.5777; Cd200 log2(fold_change) vs control: -1.286; Cherp expression level: 32.7784; Cherp log2(fold_change) vs control: -2.489; Clec2g expression level: 0; Clec2g log2(fold_change) vs control: -inf; Cnnm4 expression level: 4.2236; Cnnm4 log2(fold_change) vs control: -3.566; Cox15 expression level: 15.6597; Cox15 log2(fold_change) vs control: 1.429; Cpa2 expression level: 0.3128; Cpa2 log2(fold_change) vs control: -2.322; Ctrl expression level: 0.34; Ctrl log2(fold_change) vs control: -1.578; Dcun1d1 expression level: 4.162; Dcun1d1 log2(fold_change) vs control: -1.661; Defb42 expression level: 0.2203; Defb42 log2(fold_change) vs control: -2.046; Dtx1 expression level: 0.142; Dtx1 log2(fold_change) vs control: -3.544; Ehf expression level: 0.2985; Ehf log2(fold_change) vs control: -1.4739; Ercc2 expression level: 13.9366; Ercc2 log2(fold_change) vs control: -3.6; Erh expression level: 2.618; Erh log2(fold_change) vs control: -1.258; Fmnl1 expression level: 0.2192; Fmnl1 log2(fold_change) vs control: -2.084; Gys2 expression level: 0; Gys2 log2(fold_change) vs control: -inf; Hist1h2ab expression level: 1.43; Hist1h2ab log2(fold_change) vs control: 2.322; Hist1h2bg expression level: 0; Hist1h2bg log2(fold_change) vs control: -inf; Hist1h2bh expression level: 0; Hist1h2bh log2(fold_change) vs control: -inf; Hist1h4c expression level: 0.4025; Hist1h4c log2(fold_change) vs control: -1; Isl1 expression level: 0.3246; Isl1 log2(fold_change) vs control: -1.301; Krt19 expression level: 10.3867; Krt19 log2(fold_change) vs control: 1.043; Larp1b expression level: 6.304; Lhx6 expression level: 2.879; Lhx6 log2(fold_change) vs control: -2.012; Lsm5 expression level: 1.269; Lsm5 log2(fold_change) vs control: -1.065; M1ap expression level: 2.14; M1ap log2(fold_change) vs control: 1.796; Med9os expression level: 0.7829; Med9os log2(fold_change) vs control: -1.4; Nckipsd expression level: 23.2533; Nckipsd log2(fold_change) vs control: 2.486; Nr3c2 expression level: 0.0668; Nr3c2 log2(fold_change) vs control: -4.037; Nr6a1 expression level: 0.2068; Nr6a1 log2(fold_change) vs control: -3.152; Ntrk3 expression level: 0.4025; Ntrk3 log2(fold_change) vs control: -2.2019; Parvg expression level: 0.1595; Parvg log2(fold_change) vs control: -3.209; Pde4dip expression level: 24.1833; Pde4dip log2(fold_change) vs control: -7.338; Psd4 expression level: 0.1018; Psd4 log2(fold_change) vs control: -3.94; Ptpa expression level: 214.561; Ptpa log2(fold_change) vs control: 1.701; Ptpn6 expression level: 3.903; Ptpn6 log2(fold_change) vs control: -1.613; Rnu3a expression level: 0; Rnu3a log2(fold_change) vs control: -inf; Rpph1 expression level: 0.6553; Rpph1 log2(fold_change) vs control: -1; Rsad1 expression level: 1.419; Rsad1 log2(fold_change) vs control: -1.14; Saa1 expression level: 0.1901; Saa1 log2(fold_change) vs control: -2.322; Samd12 expression level: 0.2728; Samd12 log2(fold_change) vs control: -3.717; Scn8a expression level: 0.1998; Scn8a log2(fold_change) vs control: -2; Sgca expression level: 0.5689; Sgca log2(fold_change) vs control: -1.112; Slc15a4 expression level: 13.3996; Slc15a4 log2(fold_change) vs control: -2.086; Slc16a5 expression level: 0.07215; Slc16a5 log2(fold_change) vs control: -3.671; Snhg9 expression level: 3.722; Snhg9 log2(fold_change) vs control: -2.322; St7 expression level: 24.6198; St7 log2(fold_change) vs control: -1.48; Stmn1 expression level: 5.272; Stmn1 log2(fold_change) vs control: 1.77; Susd1 expression level: 2.296; Susd1 log2(fold_change) vs control: 1.732; Syt8 expression level: 0.5148; Syt8 log2(fold_change) vs control: -2.627; Syt12 expression level: 0.9828; Syt12 log2(fold_change) vs control: -2.055; Tldc2 expression level: 0; Tldc2 log2(fold_change) vs control: -inf; Tnnc2 expression level: 0.3105; Tnnc2 log2(fold_change) vs control: -1.361; Unc5c expression level: 0.4569; Unc5c log2(fold_change) vs control: -1.248; Wdr17 expression level: 0.2366; Wdr17 log2(fold_change) vs control: -3.241; Zbtb18 expression level: 4.229; Zbtb18 log2(fold_change) vs control: -3.388; Zfp618 expression level: 1.3488; Zfp618 log2(fold_change) vs control: -1.817; number of genes downregulated, FC ≥ 2: 520; number of genes upregulated, FC ≥ 2: 531; number of genes solely downregulated (FC ≥ 2): 113 (10.7%); number of genes solely upregulated (FC ≥ 2): 256 (17%)
